According to the CheMixHub ionic liquid set:

Assay: xn = mol fraction of the nth substance listed
Settings: 308.15 K, 101 kPa

CCCCCCCCCCCCCCCC[n+]1ccccc1.[Cl-] + C[C@H](N)C(=O)O + O
Settings | electrical conductivity [S/m]
x2 = 0, x1 = 5.4e-07 | 0.000222
x2 = 0, x1 = 9e-07 | 0.00029
x2 = 0, x1 = 1.62e-06 | 0.0004
x2 = 0, x1 = 2.34e-06 | 0.000465
x2 = 0, x1 = 2.88e-06 | 0.000581
x2 = 0, x1 = 3.78e-06 | 0.000705
x2 = 0, x1 = 4.5e-06 | 0.000794
x2 = 0, x1 = 5.59e-06 | 0.000937
x2 = 0, x1 = 6.85e-06 | 0.00106
x2 = 0, x1 = 7.93e-06 | 0.001222
x2 = 0, x1 = 9.01e-06 | 0.001438
x2 = 0, x1 = 1.009e-05 | 0.00159
x2 = 0, x1 = 1.117e-05 | 0.001701
x2 = 0, x1 = 1.442e-05 | 0.00209
x2 = 0, x1 = 1.55e-05 | 0.00219
x2 = 0, x1 = 1.766e-05 | 0.00237
x2 = 0, x1 = 1.982e-05 | 0.00248
x2 = 0, x1 = 2.18e-05 | 0.00259
x2 = 0, x1 = 2.397e-05 | 0.00264
x2 = 0, x1 = 2.595e-05 | 0.00278
x2 = 0, x1 = 2.991e-05 | 0.00297
x2 = 0, x1 = 3.406e-05 | 0.00314
x2 = 0, x1 = 3.784e-05 | 0.00328
x2 = 0, x1 = 4.162e-05 | 0.00342
x2 = 0, x1 = 4.541e-05 | 0.00356
x2 = 0, x1 = 4.919e-05 | 0.00369
x2 = 0, x1 = 5.099e-05 | 0.00375
x2 = 0, x1 = 5.982e-05 | 0.00403
x2 = 0, x1 = 6.829e-05 | 0.00432
x2 = 0, x1 = 7.64e-05 | 0.00454
x2 = 0, x1 = 8.415e-05 | 0.00477
x2 = 0, x1 = 9.171e-05 | 0.00497
x2 = 0, x1 = 9.892e-05 | 0.00516
x2 = 0, x1 = 0.0001058 | 0.00533
x2 = 0, x1 = 0.0001124 | 0.0055
x2 = 0, x1 = 0.0001189 | 0.00565
x2 = 2.252e-05, x1 = 1.08e-06 | 0.000338
x2 = 2.252e-05, x1 = 2.34e-06 | 0.00063
x2 = 2.252e-05, x1 = 3.42e-06 | 0.000917
x2 = 2.252e-05, x1 = 4.69e-06 | 0.00119
x2 = 2.252e-05, x1 = 5.77e-06 | 0.00147
x2 = 2.252e-05, x1 = 6.85e-06 | 0.001711
x2 = 2.252e-05, x1 = 7.93e-06 | 0.001903
x2 = 2.252e-05, x1 = 9.19e-06 | 0.00208
x2 = 2.252e-05, x1 = 1.027e-05 | 0.00219
x2 = 2.252e-05, x1 = 1.135e-05 | 0.00241
x2 = 2.252e-05, x1 = 1.243e-05 | 0.00258
x2 = 2.252e-05, x1 = 1.352e-05 | 0.00273
x2 = 2.252e-05, x1 = 1.46e-05 | 0.00288
x2 = 2.252e-05, x1 = 1.568e-05 | 0.00298
x2 = 2.252e-05, x1 = 1.784e-05 | 0.00318
x2 = 2.252e-05, x1 = 2e-05 | 0.00331
x2 = 2.252e-05, x1 = 2.217e-05 | 0.00341
x2 = 2.252e-05, x1 = 2.433e-05 | 0.00351
x2 = 2.252e-05, x1 = 2.631e-05 | 0.00358
x2 = 2.252e-05, x1 = 3.046e-05 | 0.00382
x2 = 2.252e-05, x1 = 3.442e-05 | 0.00393
x2 = 2.252e-05, x1 = 3.838e-05 | 0.00411
x2 = 2.252e-05, x1 = 4.235e-05 | 0.00422
x2 = 2.252e-05, x1 = 4.613e-05 | 0.00439
x2 = 2.252e-05, x1 = 4.992e-05 | 0.00462
x2 = 2.252e-05, x1 = 5.172e-05 | 0.00468
x2 = 2.252e-05, x1 = 6.073e-05 | 0.00486
x2 = 2.252e-05, x1 = 6.938e-05 | 0.00502
x2 = 2.252e-05, x1 = 7.767e-05 | 0.00529
x2 = 2.252e-05, x1 = 8.542e-05 | 0.00541
x2 = 2.252e-05, x1 = 9.316e-05 | 0.00565
x2 = 2.252e-05, x1 = 0.0001004 | 0.00593
x2 = 2.252e-05, x1 = 0.0001074 | 0.00614
x2 = 2.252e-05, x1 = 0.0001142 | 0.00629
x2 = 2.252e-05, x1 = 0.0001207 | 0.00635
x2 = 0.0003926, x1 = 6.912e-05 | 0.0057
x2 = 0.0003926, x1 = 7.742e-05 | 0.00596
x2 = 0.0003927, x1 = 1.08e-06 | 0.000964
x2 = 0.0003927, x1 = 2.35e-06 | 0.00116
x2 = 0.0003927, x1 = 3.43e-06 | 0.00138
x2 = 0.0003927, x1 = 4.51e-06 | 0.001535
x2 = 0.0003927, x1 = 5.78e-06 | 0.00176
x2 = 0.0003927, x1 = 6.86e-06 | 0.001924
x2 = 0.0003927, x1 = 7.94e-06 | 0.00212
x2 = 0.0003927, x1 = 9.02e-06 | 0.00222
x2 = 0.0003927, x1 = 1.029e-05 | 0.0024
x2 = 0.0003927, x1 = 1.137e-05 | 0.00252
x2 = 0.0003927, x1 = 1.245e-05 | 0.00271
x2 = 0.0003927, x1 = 1.354e-05 | 0.00279
x2 = 0.0003927, x1 = 1.462e-05 | 0.00297
x2 = 0.0003927, x1 = 1.57e-05 | 0.00311
x2 = 0.0003927, x1 = 1.787e-05 | 0.0034
x2 = 0.0003927, x1 = 2.003e-05 | 0.0035
x2 = 0.0003927, x1 = 2.22e-05 | 0.00366
x2 = 0.0003927, x1 = 2.418e-05 | 0.00389
x2 = 0.0003927, x1 = 2.635e-05 | 0.00397
x2 = 0.0003927, x1 = 3.032e-05 | 0.00414
x2 = 0.0003927, x1 = 3.447e-05 | 0.00426
x2 = 0.0003927, x1 = 3.844e-05 | 0.00448
x2 = 0.0003927, x1 = 4.223e-05 | 0.00473
x2 = 0.0003927, x1 = 4.602e-05 | 0.00487
x2 = 0.0003927, x1 = 4.981e-05 | 0.00495
x2 = 0.0003927, x1 = 5.161e-05 | 0.00502
x2 = 0.0003927, x1 = 6.064e-05 | 0.00532
